Here are results for eight molecules from patent US20150119373A1, “NOVEL BETULINIC ACID DERIVATIVES AS HIV INHIBITORS” (HETERO RESEARCH FOUNDATION, priority 2012, published 2015).

For one series, the system named is HIV-1 strain 92HT599. Kind of series: Antiviral activity: p24 estimation in MT2 cells infected with HIV-1 strain 92HT599. In kind it is cell-based. To be noted: Human immunodeficiency virus 1, MT2 cells, HIV-1 92HT599, ~96 hours, p24; for inhibition at 0.1 µM: 100 nM, read-out: Antiviral activity % inhibition 100 nM; for inhibition at 1 µM: 1000 nM, read-out: Antiviral activity % inhibition 1000 nM. Summed up:
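Infection of MT2 cells used 10 TCID50/30000 cells, with compound present at ≤1% DMSO for ~96 h. p24 in well aliquots was quantified by kit. Percent inhibition is relative to vehicle controls.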

The nature of series [1]: Cyto-toxicity assay (MTT) in MT2 cells without virus. In kind it is cell-based. To be noted: human. The protocol:
For cyto-toxicity assay the same amount of MT2 cells as in antiviral assay without virus was added to the 96 well plates. The cyto-toxicity was measured using MTT reagent in parallel with p24 estimation. The percent viability is calculated in comparison with vehicle control.

Series [2] is described as follows: Single dose oral pharmacokinetic study in mice. In kind it is in vivo. Conditions: for AUC(0-inf) / Cmax / Tmax / AUC(0-t): mouse, plasma. The protocol:
The test item was administered through oral route to animals (rat/mice) at 30 mg/kg dose in a suitable vehicle at 10 ml/kg dose volume. Blood samples (˜50 uL at each time point) were collected from retro-orbital plexus using K3 EDTA as anticoagulant in eppendorf tubes at defined time intervals under light ether anesthesia. The samples were centrifuged at 3500×g to separate plasma and stored at −80° C. until analysis.
Sample analysis: Test samples were analyzed using LC-MS-MS after developing fit-for-purpose method for each of test compound.

[3] abbreviates: Oral PK @ 30 mg/ kg dose in mice (Table 6).
[4] abbreviates: Oral PK @ 30 mg/ kg dose in mice (Table 6), read-out: AUCt.
Setting [5] is: Mice oral PK @30 mg/kg (Table 5).

Like-named read-outs stand apart in the source and are kept apart here.

The term inhibition denotes the change of the read-out against control, counted positive when it falls. Broadly, the viability is a read-out of living cells in per cent, often relative to untreated cells. A word on the AUC(0-inf): it is total exposure, with the tail of the curve extrapolated. High values mean more exposure, low ones less exposure. In general, Cmax refers to the peak of the concentration-time curve. The Tmax is the time at which the peak concentration occurs. As for `COCCOCCN1CCN(C(=O)[C@]23CC[C@@H](C4(C)CC4)[C@@H]2[C@H]2CC[C@@H]4[C@@]5(C)CC[C@H](OC(=O)CC(C)(C)C(=O)O)C(C)(C)[C@@H]5CC[C@@]4(C)[C@]2(C)CC3)CC1` [Example 39, 4-(((1R,3aS,5aR,5bR,7aR,9S,11aR,11bR,13aR,13bR)-3a-(4-(2-(2-methoxyethoxyl)ethyl)piperazine-1-carbonyl)-5a,5b,8,8,11a-pentamethyl-1-(1-methylcyclopropyl)icosahydro-1H-cyclopenta[a]chrysen-9-yl)oxy)-2,2-dimethyl-4-oxobutanoic acid], in the series on HIV-1 strain 92HT599, the inhibition at 0.1 µM is 97% and the inhibition at 1 µM was 99%. In series [1], this molecule had a viability at 100 nM of 83% and a viability at 1000 nM of 88%. In series [2] (setting [3]), the Tlast turned out to be 48 h, the AUC(0-inf) is 119 µg·h/mL, the peak concentration (Cmax) stood at 7000 ng/mL and the time to peak (Tmax) worked out at 4 h. Besides, in series [2] (setting [4]), the AUC(0-t) was 111 µg·h/mL.
Turning to `CCN1CCN(C(=O)[C@]23CC[C@@H](C4(C)CC4)[C@@H]2[C@H]2CC[C@@H]4[C@@]5(C)CC[C@H](OC(=O)CC(C)(C)CC(=O)O)C(C)(C)[C@@H]5CC[C@@]4(C)[C@]2(C)CC3)CC1` [Example 26, 5-(((1R,3aS,5aR,5bR,7aR,9S,11aR,11bR,13aR,13bR)-3a-(4-ethylpiperazine-1-carbonyl)-5a,5b,8,8,8,11a-pentamethyl-1-(1-methylcyclopropyl)icosahydro-1H-cyclopenta[a]chrysen-9-yl)oxy)-3,3-dimethyl-5-oxopentanoic acid], in the series on HIV-1 strain 92HT599, the inhibition at 0.1 µM was 94% and the inhibition at 1 µM was 99%. Also, in series [1], the viability at 100 nM was 100% and the viability at 1000 nM was determined as 99%. Also, in series [2] (setting [3]), the Tlast turned out to be 24 h, the AUC(0-inf) was 151 µg·h/mL, the Cmax was 6900 ng/mL and the Tmax was found to be 3.5 h. In addition, the AUC(0-t) in series [2] (setting [4]) came out at 99.4 µg·h/mL.
On to `[2H]C([2H])([2H])C(CC(=O)O[C@H]1CC[C@]2(C)[C@H]3CC[C@@H]4[C@H]5[C@H](C6(C)CC6)CC[C@]5(C(=O)N5CCN(CC)CC5)CC[C@@]4(C)[C@]3(C)CC[C@H]2C1(C)C)(C(=O)O)C([2H])([2H])[2H]` [Example 30], for which, in the series with HIV-1 strain 92HT599, the inhibition at 0.1 µM was 97% and the inhibition at 1 µM was 99%. Besides, in series [1], the viability at 100 nM came to 83% and the viability at 1000 nM is 82%. For the same molecule, in series [2] (setting [3]), the Tlast was 48 h, the AUC(0-inf) is 78.5 µg·h/mL, the maximum concentration (Cmax) worked out at 4700 ng/mL and the Tmax is 3.5 h. Further, the AUC(0-t) in series [2] (setting [4]) worked out at 67.1 µg·h/mL.
For `CC(C)(CC(=O)O[C@H]1CC[C@]2(C)[C@H]3CC[C@@H]4[C@H]5[C@H](C6(C)CC6)CC[C@]5(C(=O)N5CCC(C(=O)NCCN6CCOCC6)CC5)CC[C@@]4(C)[C@]3(C)CC[C@H]2C1(C)C)C(=O)O` [Example 49, 2,2-dimethyl-4-oxo-4-(((1R,3aS,5aR,5bR,7aR,9S,11aR,11bR,13aR,13bR)-5a,5b,8,8,11a-pentamethyl-1-(1-methylcyclopropyl)-3a-(4-((2-morpholinoethyl)carbamoyl)piperidine-1-carbonyl)icosahydro-1H-cyclopenta[a]chrysen-9-yl)oxy)butanoic acid], in the series with HIV-1 strain 92HT599, the inhibition at 0.1 µM was 99% and the inhibition at 1 µM is 98%. Further, in series [1], the viability at 100 nM is 85% and the viability at 1000 nM turned out to be 88%. Further, in series [2] (setting [3]), the Tlast came to 48 h, the area under the curve AUC(0-inf) was found to be 38.8 µg·h/mL, the Cmax was 5600 ng/mL and the Tmax came out at 1.3 h. For the same molecule, the AUC(0-t) in series [2] (setting [4]) came to 38.7 µg·h/mL.
For `CCN1CCN(C(=O)[C@]23CC[C@@H](C4(C)CC4)[C@@H]2[C@H]2CC[C@@H]4[C@@]5(C)CC[C@H](OC(=O)[C@H]6C[C@@H](C(=O)O)C6(C)C)C(C)(C)[C@@H]5CC[C@@]4(C)[C@]2(C)CC3)CC1` [Example 13, (1R,3S)-3-(((1R,3aS,5aR,5bR,7aR,9S,11aR,11bR,13aR,13bR)-3a-(4-ethylpiperazine-1-carbonyl)-5a,5b,8,8,11a-pentamethyl-1-(1-methylcyclopropyl)icosahydro-1H-cyclopenta[a]chrysen-9-yloxy)carbonyl)-2,2-dimethylcyclobutanecarboxylic acid], in the series with HIV-1 strain 92HT599, the inhibition at 0.1 µM was 83% and the inhibition at 1 µM is 99%. In series [1], this molecule registered a viability at 100 nM of 86% and a viability at 1000 nM of 79%. In addition, in series [2] (setting [5]), the maximum concentration (Cmax) amounted to 12000 ng/mL and the Tmax amounted to 20 h. Further, the AUC(0-t) in series [2] (Mice oral PK @30 mg/kg (Table 5), read-out: AUC 0-t) is 456 µg·h/mL.
As to `CC1([C@@H]2CC[C@]3(C(=O)N4CCN(CCCN5CCOCC5)CC4)CC[C@]4(C)[C@H](CC[C@@H]5[C@@]6(C)CC[C@H](OC(=O)[C@H]7C[C@@H](C(=O)O)C7(C)C)C(C)(C)[C@@H]6CC[C@]54C)[C@@H]23)CC1` [Example 34], in the series with HIV-1 strain 92HT599, the inhibition at 0.1 µM is 100% and the inhibition at 1 µM was 100%. In series [1], this molecule had a viability at 100 nM of 100% and a viability at 1000 nM of 91%. In series [2] (setting [3]), the Tlast came to 48 h, the AUC(0-inf) turned out to be 240 µg·h/mL, the peak concentration (Cmax) was 9200 ng/mL and the Tmax was found to be 6.5 h. Further, the AUC(0-t) in series [2] (setting [4]) came to 214 µg·h/mL.
As to `CC1([C@@H]2CC[C@]3(C(=O)N4CCOCC4)CC[C@]4(C)[C@H](CC[C@@H]5[C@@]6(C)CC[C@H](OC(=O)[C@H]7C[C@@H](C(=O)O)C7(C)C)C(C)(C)[C@@H]6CC[C@]54C)[C@@H]23)CC1` [Example 28, (1R,3S)-2,2-dimethyl-3-((((1R,3aS,5aR,5bR,7aR,9S,11aR,11bR,13aR,13bR)-5a,5b,8,8,11a-pentamethyl-1-(1-methylcyclopropyl)-3a-(morpholine-4-carbonyl)icosahydro-1H-cyclopenta[a]chrysen-9-yl)oxy)carbonyl)cyclobutane-1-carboxylic acid], in the series on HIV-1 strain 92HT599, the inhibition at 0.1 µM is 98% and the inhibition at 1 µM is 99%. In series [1], this molecule gave a viability at 100 nM of 81% and a viability at 1000 nM of 78%. Also, in series [2] (setting [3]), the Tlast stood at 48 h, the area under the curve AUC(0-inf) was determined as 398 µg·h/mL, the Cmax came to 4500 ng/mL and the time of peak concentration (Tmax) came to 16 h. Moreover, in series [2] (setting [4]), the AUC(0-t) amounted to 171 µg·h/mL.
As to `COCCOCCN1CCN(C(=O)[C@]23CC[C@@H](C4(C)CC4)[C@@H]2[C@H]2CC[C@@H]4[C@@]5(C)CC[C@H](OC(=O)[C@H]6C[C@@H](C(=O)O)C6(C)C)C(C)(C)[C@@H]5CC[C@@]4(C)[C@]2(C)CC3)CC1` [Example 40, (1R,3S)-3-((((1R,3aS,5aR,5bR,7aR,9S,11aR,11bR,13aR,13bR)-3a-(4-(2-(2-methoxyethoxy)ethyl)piperazine-1-carbonyl)-5a,5b,8,8,11a-pentamethyl-1-(1-methylcyclopropyl)icosahydro-1H-cyclopenta[a]chrysen-9-yl)oxy)carbonyl)-2,2-dimethylcyclobutane-1-carboxylic acid], in the series on HIV-1 strain 92HT599, the inhibition at 0.1 µM was 100% and the inhibition at 1 µM is 99%. In series [1], this molecule registered a viability at 100 nM of 79% and a viability at 1000 nM of 81%. In series [2] (setting [3]), the Tlast turned out to be 48 h, the area under the curve AUC(0-inf) stood at 119 µg·h/mL, the highest level (Cmax) was 7000 ng/mL and the time of peak concentration (Tmax) came to 4 h. The AUC(0-t) in series [2] (setting [4]) worked out at 111 µg·h/mL.
